This is an account of results in PMC9523454 (Pharmacology Research & Perspectives, 2022).

Assay [1] deals with GIPR. To be noted: cited from earlier work.
Assay [2] concerns GLP‐1R/GIPR heteromer. The format is cell-based, human. To be noted: 1 μM ligand; HEK‐293, fixed ratio of GLP‐1R‐Nluc and GIPR‐SYFP2; mean ± SEM, at least three independent experiments.
Assay [3] deals with GIPR‐Nluc (human) (UniProt P48546). The assay is described as follows: FRET or BRET.
Assay [4] deals with GLP‐1R‐Nluc (human) (UniProt P43220). The assay is described as follows: FRET or BRET.
Chain of UniProt P43220 (P43220 24-463): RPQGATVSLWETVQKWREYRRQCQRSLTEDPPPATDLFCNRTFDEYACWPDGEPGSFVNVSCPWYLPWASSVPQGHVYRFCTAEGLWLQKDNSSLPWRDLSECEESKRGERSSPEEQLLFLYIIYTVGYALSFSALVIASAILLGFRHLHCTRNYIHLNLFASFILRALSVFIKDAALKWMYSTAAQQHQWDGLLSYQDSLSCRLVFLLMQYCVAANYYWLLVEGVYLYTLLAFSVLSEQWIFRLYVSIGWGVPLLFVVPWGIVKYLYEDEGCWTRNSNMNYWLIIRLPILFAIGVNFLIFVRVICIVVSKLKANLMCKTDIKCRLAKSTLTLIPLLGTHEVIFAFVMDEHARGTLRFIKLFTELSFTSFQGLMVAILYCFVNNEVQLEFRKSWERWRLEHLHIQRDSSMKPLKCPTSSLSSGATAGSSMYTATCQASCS

Values joined by “and” are separate entries in the source; they are usually repeats but may differ in a detail not shown here. Equal entries are not always repeated. No end group written: not given here.

Chain of UniProt P48546 (P48546 22-466): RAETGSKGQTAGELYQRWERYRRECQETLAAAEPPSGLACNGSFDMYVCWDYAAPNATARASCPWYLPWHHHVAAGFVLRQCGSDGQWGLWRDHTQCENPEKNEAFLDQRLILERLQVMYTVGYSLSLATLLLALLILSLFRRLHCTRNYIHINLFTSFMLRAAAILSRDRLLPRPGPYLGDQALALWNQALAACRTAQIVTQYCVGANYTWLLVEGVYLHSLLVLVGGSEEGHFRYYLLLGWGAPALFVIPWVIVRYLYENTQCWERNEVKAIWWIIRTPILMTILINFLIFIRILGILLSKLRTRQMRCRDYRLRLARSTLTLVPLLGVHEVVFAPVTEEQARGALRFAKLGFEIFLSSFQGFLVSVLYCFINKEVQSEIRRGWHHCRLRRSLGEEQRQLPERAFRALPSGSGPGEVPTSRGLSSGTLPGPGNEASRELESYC

On to “(Pro3)GIP: previously reported to be a GIPR antagonist but subsequently shown to be a low potency GIPR agonist; custom synthesized (YAPGTFISDYSIAMDKIHQQDFVNWLLAQKGKKNDWKHNITQ; Gastric inhibitory polypeptide; UniProt P09681 52-93, looked up, variant E3P)”, for which the “Activity at GIPR” value in assay [1] is recorded as “low potency GIPR agonist”. Further, the “Change in BRET ratio vs non‐stimulated cells” value in assay [2] was “no effect on BRET ratio”.

As for “GLP‐1 (9‐36): GLP‐1 metabolite, metabolic breakdown product of GLP‐1 (EGTFTSDVSSYLEGQAAKEFIAWLVKGR-NH2; UniProt P01275 100-127, looked up, fragment)”, the “Change in BRET ratio vs non‐stimulated cells” value in assay [2] was “significantly increased the BRET ratio (p < .001)”.

Regarding NES‐Venus‐mGαq, the pEC50 of the agonist GIP for recruitment in assay [3] was 8 -log EC50/M and 7.6 -log EC50/M and 7.8 -log EC50/M. For the same substance, in assay [4], the pEC50 of the agonist GLP-1 for recruitment was 7.8 -log EC50/M and 7.7 -log EC50/M and 7.9 -log EC50/M.

Take NES‐Venus‐mGαs: in assay [4], the pEC50 of the agonist GLP-1 for recruitment was 7.8 -log EC50/M and 7.5 -log EC50/M and 7.7 -log EC50/M.

On to “Oxyntomodulin: posttranslational product of proglucagon and an endogenous dual GLP‐1R/glucagon receptor agonist (HSQGTFTSDYSKYLDSRRAQDFVQWLMNTKRNRNNIA; Oxyntomodulin; UniProt P01275 53-89, looked up)”, for which the “Change in BRET ratio vs non‐stimulated cells” value in assay [2] is “no effect on BRET ratio”.

exendin‐4 (9–39): the “Change in BRET ratio vs non‐stimulated cells” value in assay [2] is given as “no significant effect on BRET ratio”.
